Read-outs that look alike come from different tables or passages of the source.
How the values were obtained:
[1] = Biodistribution of 68Ga-labeled peptide in mice bearing B16F10 mouse melanoma; format: in vivo, C57BL/6J mice; conditions: iv, total radioactivity; for tissue uptake at 2 h: 2 h p.i. unblocked
Experimental: The B16-F10 melanoma cell line (Mus musculus) used in the tumor model was obtained commercially from ATTC (CRL-6475). Cells were cultured in Dulbecco's Modified Eagle's Medium (DMEM, StemCell Technologies) supplemented by 10% FBS, 100 U/mL penicillin and 100 μg/mL streptomycin at 37° C. in a humidified incubator containing 5% CO2. Cells grown to roughly 90% confluence were washed with sterile phosphate-buffered saline (lx PBS, pH 7.4), followed by trypsinization. For tumour implantation, C57BL/6J mice were anesthetized by inhalation with 2% isoflurane in 2.0 L/min of oxygen, 2×10^6 B16-F10 cells were inoculated subcutaneously on right dorsal flank. Mice were imaged or used in biodistribution studies once the tumour reached 6-8 mm in diameter.
Similar to PET/CT imaging, tumour-bearing mice were injected with 1-2 MBq of ^68Ga-labeled CCZ01099 via tail vein under anesthesia with or without co-injection of 0.5 mg of MC1R-specific inhibitor BMS 470539. At 1 or 2 h p.i., the mice were anesthetized again, and euthanized by CO2 inhalation. Blood was promptly withdrawn, and the organs of interest were harvested, rinsed with 1×PBS (pH 7.4), and blotted dry. Each organ was then weighed and the radioactivity of the collected tissue was measured using a Wallac WIZARD2 gamma counter (Perkin Elmer), normalized to the injected dose using a standard curve and expressed as the percentage of the injected dose per gram of tissue (% ID/g). Table 3 summarizes the biodistribution data of ^68Ga-labeled CCZ01099 at 1 and 2 h p.i., as well as 1 h p.i. with co-injection of 0.5 mg of MC1R-specific inhibitor BMS 470539. Minimal background tissue radioactivity accumulation was observed, except for kidney, which is expected as the radiolabeled peptides were cleared through the renal pathway.

B16-F10 tumours = test: PET/CT imaging of B16-F10 tumour-bearing mice; format: in vivo, C57BL/6J mice
Experimental: PET imaging experiments were conducted using a preclinical micro PET/CT scanner (Siemens inveon). For static PET scan, each tumour bearing mouse was injected with 4-6 MBq of ^68Ga-labeled CCZ01099 via tail vein under anesthesia. After the injection, mice were allowed to recover and roam freely in their cages. At 1 or 2 h p.i., the mice were sedated again with 2% isoflurane inhalation and positioned in the scanner, and kept warm by a heating pad. A 10 min baseline CT scan using 60 kV X-rays at 500 μA was obtained for localization and attenuation correction after segmentation for reconstructing the PET images. A single 12 min static PET scan was acquired following the CT scan. The mice were euthanized using CO2 inhalation after imaging.

CCCC[C@H](NC(=O)CN1CCC(NC(=O)CN2CCN(CC(=O)O)CCN(CC(=O)O)CCN(CC(=O)O)CC2)CC1)C(=O)N[C@H]1CC(=O)NCCCC[C@@H](C(N)=O)N(C)C(=O)[C@H](Cc2c[nH]c3ccccc23)N(C)C(=O)[C@H](CCCNC(=N)N)N(C)C(=O)[C@@H](Cc2ccccc2)NC(=O)[C@H](Cc2c[nH]cn2)N(C)C1=O [^68Ga-labeled CCZ01099, metal not drawn]
tissue uptake at 1 h ([1]; B16F10 tumour, 1 h p.i. unblocked, C57BL/6J mice, B16F10 melanoma, read-out: Biodistribution, B16F10 tumour): 6.12 ± 1.43 %ID/g | tissue uptake at 2 h ([1]; B16F10 tumour, C57BL/6J mice, B16F10 melanoma, read-out: Biodistribution, B16F10 tumour): 5.22 ± 1.3 %ID/g | tissue uptake at 1 h ([1]; C57BL/6J, B16F10 tumour, with BMS 470539 (MC1R-specific inhibitor), 0.5 mg co-injected, 1 h p.i. blocked, co-injection of 0.5 mg BMS 470539, read-out: Biodistribution, B16F10 tumour): 0.6 ± 0.15 %ID/g | tissue uptake at 1 h ([1]; C57BL/6J, adrenal glands, with BMS 470539 (MC1R-specific inhibitor), 0.5 mg co-injected, 1 h p.i. blocked, co-injection of 0.5 mg BMS 470539, read-out: Biodistribution, Adrenal glands): 0.45 ± 0.29 %ID/g | tissue uptake at 1 h ([1]; C57BL/6J, bone, with BMS 470539 (MC1R-specific inhibitor), 0.5 mg co-injected, 1 h p.i. blocked, co-injection of 0.5 mg BMS 470539, read-out: Biodistribution, Bone): 0.17 ± 0.1 %ID/g | tissue uptake at 1 h ([1]; C57BL/6J, brain, with BMS 470539 (MC1R-specific inhibitor), 0.5 mg co-injected, 1 h p.i. blocked, co-injection of 0.5 mg BMS 470539, read-out: Biodistribution, Brain): 0.03 ± 0.02 %ID/g | tissue uptake at 1 h ([1]; C57BL/6J, fat, with BMS 470539 (MC1R-specific inhibitor), 0.5 mg co-injected, 1 h p.i. blocked, co-injection of 0.5 mg BMS 470539, read-out: Biodistribution, Fat): 0.04 ± 0.02 %ID/g | tissue uptake at 1 h ([1]; C57BL/6J, heart, with BMS 470539 (MC1R-specific inhibitor), 0.5 mg co-injected, 1 h p.i. blocked, co-injection of 0.5 mg BMS 470539, read-out: Biodistribution, Heart): 0.13 ± 0.02 %ID/g | tissue uptake at 1 h ([1]; C57BL/6J, intestine, with BMS 470539 (MC1R-specific inhibitor), 0.5 mg co-injected, 1 h p.i. blocked, co-injection of 0.5 mg BMS 470539, read-out: Biodistribution, Intestine): 0.17 ± 0.05 %ID/g | tissue uptake at 1 h ([1]; C57BL/6J, kidneys, with BMS 470539 (MC1R-specific inhibitor), 0.5 mg co-injected, 1 h p.i. blocked, co-injection of 0.5 mg BMS 470539, read-out: Biodistribution, Kidneys): 2.62 ± 0.91 %ID/g | tissue uptake at 1 h ([1]; C57BL/6J, liver, with BMS 470539 (MC1R-specific inhibitor), 0.5 mg co-injected, 1 h p.i. blocked, co-injection of 0.5 mg BMS 470539, read-out: Biodistribution, Liver): 0.38 ± 0.11 %ID/g | tissue uptake at 1 h ([1]; C57BL/6J, lungs, with BMS 470539 (MC1R-specific inhibitor), 0.5 mg co-injected, 1 h p.i. blocked, co-injection of 0.5 mg BMS 470539, read-out: Biodistribution, Lungs): 0.34 ± 0.13 %ID/g | tissue uptake at 1 h ([1]; C57BL/6J, muscle, with BMS 470539 (MC1R-specific inhibitor), 0.5 mg co-injected, 1 h p.i. blocked, co-injection of 0.5 mg BMS 470539, read-out: Biodistribution, Muscle): 0.08 ± 0.03 %ID/g | tissue uptake at 1 h ([1]; C57BL/6J, pancreas, with BMS 470539 (MC1R-specific inhibitor), 0.5 mg co-injected, 1 h p.i. blocked, co-injection of 0.5 mg BMS 470539, read-out: Biodistribution, Pancreas): 0.08 ± 0.01 %ID/g | tissue uptake at 1 h ([1]; C57BL/6J, seminal glands, with BMS 470539 (MC1R-specific inhibitor), 0.5 mg co-injected, 1 h p.i. blocked, co-injection of 0.5 mg BMS 470539, read-out: Biodistribution, Seminal glands): 0.07 ± 0.03 %ID/g | tissue uptake at 1 h ([1]; C57BL/6J, spleen, with BMS 470539 (MC1R-specific inhibitor), 0.5 mg co-injected, 1 h p.i. blocked, co-injection of 0.5 mg BMS 470539, read-out: Biodistribution, Spleen): 0.52 ± 0.28 %ID/g | tissue uptake at 1 h ([1]; C57BL/6J, stomach, with BMS 470539 (MC1R-specific inhibitor), 0.5 mg co-injected, 1 h p.i. blocked, co-injection of 0.5 mg BMS 470539, read-out: Biodistribution, Stomach): 0.19 ± 0.12 %ID/g | tissue uptake at 1 h ([1]; C57BL/6J, testes, with BMS 470539 (MC1R-specific inhibitor), 0.5 mg co-injected, 1 h p.i. blocked, co-injection of 0.5 mg BMS 470539, read-out: Biodistribution, Testes): 0.1 ± 0.02 %ID/g | tissue uptake at 1 h ([1]; C57BL/6J, thyroid, with BMS 470539 (MC1R-specific inhibitor), 0.5 mg co-injected, 1 h p.i. blocked, co-injection of 0.5 mg BMS 470539, read-out: Biodistribution, Thyroid): 0.13 ± 0.05 %ID/g | tissue uptake at 1 h ([1]; C57BL/6J, whole blood, with BMS 470539 (MC1R-specific inhibitor), 0.5 mg co-injected, 1 h p.i. blocked, co-injection of 0.5 mg BMS 470539, read-out: Biodistribution, Blood): 0.27 ± 0.04 %ID/g | tissue uptake at 1 h ([1]; adrenal glands, 1 h p.i. unblocked, C57BL/6J mice, B16F10 melanoma, read-out: Biodistribution, Adrenal glands): 0.71 ± 0.67 %ID/g | tissue uptake at 2 h ([1]; adrenal glands, C57BL/6J mice, B16F10 melanoma, read-out: Biodistribution, Adrenal glands): 0.33 ± 0.19 %ID/g | tissue uptake at 1 h ([1]; bone, 1 h p.i. unblocked, C57BL/6J mice, B16F10 melanoma, read-out: Biodistribution, Bone): 0.32 ± 0.16 %ID/g | tissue uptake at 2 h ([1]; bone, C57BL/6J mice, B16F10 melanoma, read-out: Biodistribution, Bone): 0.1 ± 0.03 %ID/g | tissue uptake at 1 h ([1]; brain, 1 h p.i. unblocked, C57BL/6J mice, B16F10 melanoma, read-out: Biodistribution, Brain): 0.05 ± 0.04 %ID/g | tissue uptake at 2 h ([1]; brain, C57BL/6J mice, B16F10 melanoma, read-out: Biodistribution, Brain): 0.01 %ID/g | tissue uptake at 1 h ([1]; fat, 1 h p.i. unblocked, C57BL/6J mice, B16F10 melanoma, read-out: Biodistribution, Fat): 0.09 ± 0.04 %ID/g | tissue uptake at 2 h ([1]; fat, C57BL/6J mice, B16F10 melanoma, read-out: Biodistribution, Fat): 0.02 ± 0.01 %ID/g | tissue uptake at 1 h ([1]; heart, 1 h p.i. unblocked, C57BL/6J mice, B16F10 melanoma, read-out: Biodistribution, Heart): 0.26 ± 0.07 %ID/g | tissue uptake at 2 h ([1]; heart, C57BL/6J mice, B16F10 melanoma, read-out: Biodistribution, Heart): 0.08 ± 0.01 %ID/g | tissue uptake at 1 h ([1]; intestine, 1 h p.i. unblocked, C57BL/6J mice, B16F10 melanoma, read-out: Biodistribution, Intestine): 0.37 ± 0.11 %ID/g | tissue uptake at 2 h ([1]; intestine, C57BL/6J mice, B16F10 melanoma, read-out: Biodistribution, Intestine): 0.53 ± 0.38 %ID/g | tissue uptake at 1 h ([1]; kidneys, 1 h p.i. unblocked, C57BL/6J mice, B16F10 melanoma, read-out: Biodistribution, Kidneys): 5.98 ± 1.24 %ID/g | tissue uptake at 2 h ([1]; kidneys, C57BL/6J mice, B16F10 melanoma, read-out: Biodistribution, Kidneys): 4.42 ± 0.55 %ID/g | tissue uptake at 1 h ([1]; liver, 1 h p.i. unblocked, C57BL/6J mice, B16F10 melanoma, read-out: Biodistribution, Liver): 0.54 ± 0.07 %ID/g | tissue uptake at 2 h ([1]; liver, C57BL/6J mice, B16F10 melanoma, read-out: Biodistribution, Liver): 0.44 ± 0.08 %ID/g | tissue uptake at 1 h ([1]; lungs, 1 h p.i. unblocked, C57BL/6J mice, B16F10 melanoma, read-out: Biodistribution, Lungs): 0.74 ± 0.14 %ID/g | tissue uptake at 2 h ([1]; lungs, C57BL/6J mice, B16F10 melanoma, read-out: Biodistribution, Lungs): 0.31 ± 0.05 %ID/g | tissue uptake at 1 h ([1]; muscle, 1 h p.i. unblocked, C57BL/6J mice, B16F10 melanoma, read-out: Biodistribution, Muscle): 0.17 ± 0.05 %ID/g | tissue uptake at 2 h ([1]; muscle, C57BL/6J mice, B16F10 melanoma, read-out: Biodistribution, Muscle): 0.04 %ID/g | tissue uptake at 1 h ([1]; pancreas, 1 h p.i. unblocked, C57BL/6J mice, B16F10 melanoma, read-out: Biodistribution, Pancreas): 0.17 ± 0.04 %ID/g | tissue uptake at 2 h ([1]; pancreas, C57BL/6J mice, B16F10 melanoma, read-out: Biodistribution, Pancreas): 0.07 ± 0.01 %ID/g | tissue uptake at 1 h ([1]; seminal glands, 1 h p.i. unblocked, C57BL/6J mice, B16F10 melanoma, read-out: Biodistribution, Seminal glands): 0.11 ± 0.05 %ID/g | tissue uptake at 2 h ([1]; seminal glands, C57BL/6J mice, B16F10 melanoma, read-out: Biodistribution, Seminal glands): 0.04 ± 0.01 %ID/g | tissue uptake at 1 h ([1]; spleen, 1 h p.i. unblocked, C57BL/6J mice, B16F10 melanoma, read-out: Biodistribution, Spleen): 0.35 ± 0.07 %ID/g | tissue uptake at 2 h ([1]; spleen, C57BL/6J mice, B16F10 melanoma, read-out: Biodistribution, Spleen): 0.19 ± 0.03 %ID/g | tissue uptake at 1 h ([1]; stomach, 1 h p.i. unblocked, C57BL/6J mice, B16F10 melanoma, read-out: Biodistribution, Stomach): 0.26 ± 0.15 %ID/g | tissue uptake at 2 h ([1]; stomach, C57BL/6J mice, B16F10 melanoma, read-out: Biodistribution, Stomach): 0.2 ± 0.16 %ID/g | tissue uptake at 1 h ([1]; testes, 1 h p.i. unblocked, C57BL/6J mice, B16F10 melanoma, read-out: Biodistribution, Testes): 0.21 ± 0.06 %ID/g | tissue uptake at 2 h ([1]; testes, C57BL/6J mice, B16F10 melanoma, read-out: Biodistribution, Testes): 0.07 ± 0.01 %ID/g | tissue uptake at 1 h ([1]; thyroid, 1 h p.i. unblocked, C57BL/6J mice, B16F10 melanoma, read-out: Biodistribution, Thyroid): 0.31 ± 0.08 %ID/g | tissue uptake at 2 h ([1]; thyroid, C57BL/6J mice, B16F10 melanoma, read-out: Biodistribution, Thyroid): 0.16 ± 0.03 %ID/g | tissue uptake at 1 h ([1]; whole blood, 1 h p.i. unblocked, C57BL/6J mice, B16F10 melanoma, read-out: Biodistribution, Blood): 0.7 ± 0.15 %ID/g | tissue uptake at 2 h ([1]; whole blood, C57BL/6J mice, B16F10 melanoma, read-out: Biodistribution, Blood): 0.19 ± 0.01 %ID/g | Tumour visualization on PET images (B16-F10 tumours; 1 h and 2 h p.i.): Tumours were clearly visualized | Tumour uptake on PET with co-injection of MC1R-specific inhibitor BMS 470539 (B16-F10 tumours; 1 h p.i., 0.5 mg BMS 470539): tumour uptake was abolished

From US11395857B2, “Radiolabeled melanocortin 1 receptor-specific alpha-melanocyte-stimulating hormone analogues for imaging or therapy” (PROVINCIAL HEALTH SERVICES AUTHORITY, priority 2018, dated 2022)
